“Also recorded” adds a separate entry of the source.
Assays:
SUDHL-4 cells = test: CIML NK cell SUDHL-4 cell ADCC assay; format: cell-based
Procedure: CIML NK cell SUDHL-4 cell ADCC assay: SUDHL-4 cells were labelled with CFSE and re-suspended in XVIVO15 media containing 20% Human serum. Cells were aliquoted at 10,000 cells/well, 18 ul/well of 96 well V-bottom plates. NK cells (in PBS 5% HSA) were added at a 9:1 ratio (90,000 NK cell per well) in an equal volume (18 ul per well). Co-cultures were incubated overnight at 37° C. in a 5% CO2 atmosphere. Next day, cells were washed, and stained with the following reagents: Near Infra-Red Fixable viability dye (Thermo Fisher), CD3 FITC (Biolegend) and CD56 PE (Biolegend). Percentages of Dead SUDHL-4 cells were calculated by gating on CFSE+ cells that are also positive for Near Infrared Live Dead dye.
Baseline activity was assessed by using NK cells that have not been stimulated with cytokine cocktail (non-CIML NK cells). FIG. 6 represents frequencies of dead SUDHL-4 cells in NK-SUDHL-4 cell co-cultures after 18 hours of incubation.

[1] = system: multiple myeloma patient bone marrow plasma cells (CD38+ CD138+); test: Patient bone marrow with autologous CIML NK cells: reduction of plasma cells; format: cell-based, human; details: 4 hr, IVIG 10 ug/ml (FIG. 7)
Procedure: (§1) Patient bone marrow (3 ml) and blood (20 ml) were shipped at ambient temperature from Discovery Biosciences. Bone marrow was diluted 1:1 with PBS, and […] of bone marrow-PBS mixture was aliquoted into 96 deep well plates. Bone marrow cells were incubated overnight until CIML cells were added next day.
(§2) PBMC were isolated from blood by Ficoll density gradient centrifugation. PBMC were centrifuged at 400 g for 10 min and re-suspended in EasySep buffer. NK cells were isolated using NK cell isolation kits from […] Technologies according to kit's manufacturers' instructions.
(§3) NK cells were re-suspended at 1×10^6 cells/ml in XVIVO15, 10% Human Serum, IL-15 (50 ng/ml), IL-12 (10 ng/ml), IL-18 (50 ng/ml), and incubated for 18 hrs. Following overnight incubation with cytokines, NK cells were washed twice with PBS 5% Human Serum Albumin, counted and re-suspended at a cell density of 2×10^5 cells/ml of XVIVO15 media. Twenty microliters (4000 cells) were added per each well containing 50 µl of bone marrow: PBS mixture. […] Control wells received XVIVO15 media. Well contents were mixed by pipetting up and down and plates were centrifuged at 400 g for 1 min.
(§4) The assay was then incubated for 4 hrs at 37° C. 5% CO2. […] Finally, cells were re-suspended in 200 µl of FACS Buffer and analyzed using Attune Flow Cytometer. Data were analyzed using FlowJo software and graphed using GraphPad Prism.

[2] = system: CD56+CD138- CIML NK cells; test: Patient bone marrow with CIML NK cells: NK cell fratricide; format: cell-based, human; details: CIML NK cells co-incubated with patient bone marrow for 4 hrs (FIG. 8)
Procedure: as §1, §2, §3, §4

[3] = system: NK cells (CIML and non-CIML); test: CIML NK cell fratricide assay; format: cell-based
Procedure: PBMC isolation: Leukopheresis product from a donor with body mass index (BMI) between 19-25, under 50 years old, not on immuno-suppressive drugs for at least 2 weeks with an estimated PBMC cell count of >10^10 was obtained from Key Biologics (subject ID 20982200) and transported at ambient temperature. Leukopheresis bag was wiped down with 70% EtOH, a small slit was made and contents were pipetted off into tubes. Leukopak contents were diluted 1:1 with PBS without Ca++/Mg++ and 20 ml of this mixture was layered on top of 25 mL of Ficoll. Tubes were then centrifuged at 400 g for 30 minutes without brakes. PBMCs were harvested from the interface into separate tubes, and tubes were filled to 50 mL with PBS. Cells were centrifuged for 10 min at 120 g to get rid of platelets. Supernatant was poured off and cells were re-suspended in RPMI 10% FBS at a concentration of 7-10×10^6 cells/ml. Cells were cultured overnight at 37 C in a 5% CO2 atmosphere until NK cell isolation.
NK cell isolation: PBMC were centrifuged at 400 g for 10 min and re-suspended in EasySep buffer. NK cells were isolated using NK cell isolation kits from […] Technologies according to kit's manufacturers' instructions. NK cell purity and phenotype was assessed by trypan Blue and flow cytometry using the following antibody cocktail: anti-CD56PE, CD3 APC, and viability was determined using staining with Trypan Blue exclusion dye, and by flow cytometry using Near Infra-Red Fixable viability dye (Thermo Fisher).
CIML NK cell generation: Isolated NK cells were re-suspended at 2×10^6 cells/ml in XVIVO 10% Human Serum and the following concentrations IL-15 (50 ng/ml), IL-12 (10 ng/ml), IL-18 (50 ng/ml) for 12 to 18 hrs. Cells were harvested and tested for purity and viability by Trypan Blue staining and by Flow Cytometry using Near Infra-Red Fixable viability dye (Thermo Fisher), CD3 APC (Biolegend) and CD56 PE (Biolegend).
The stock was then serially diluted in 100% DMSO to achieve 1000× concentrations to be used in the experiment. The 100% DMSO compound stock was then added to a tube and media was added to a volume of 1000 ul per 1 ul of compound and vortexed for 1 minute to ensure a homogenous mixture.
Similarly, NK cell pellets were re-suspended in Daratumumab control antibody solutions (a range of 3 ug/ml to 0.01 ug/ml in PBS 5% HSA). Resulting NK cell suspensions were aliquoted at 55 ul/well of a 96 wellv-bottom plate and were incubated for 2 hrs at 37° C. in a 5% CO2 atmosphere.

CCCCC[C@@H]1NC(=O)[C@H](CCCNC(=N)N)NC(=O)[C@H](C)NC(=O)CSC[C@@H](C(=O)NCCOCCOCCOCCOCCOCCOCCn2nnc3c2CCC2C(CC3)C2COC(=O)N2CCC(C(=O)NCC(=O)N[C@H](CCC(=O)N[C@H](CCC(=O)N[C@H](CCC(=O)O)C(=O)N[C@H](CCC(=O)N[C@H](CCC(=O)NCC(=O)NCC(=O)N[C@@H](CC(=O)O)C(=O)N[C@H]3CSSC[C@@H](C(=O)N[C@H](C(=O)O)[C@@H](C)O)NC(=O)[C@H](Cc4c[nH]c5ccccc45)NC(=O)[C@H](C(C)C)NC(=O)[C@H](CC(C)C)NC(=O)[C@H](CCC(=O)O)NC(=O)CNC(=O)[C@H](CC(C)C)NC(=O)[C@H](Cc4c[nH]cn4)NC(=O)[C@H](Cc4c[nH]c5ccccc45)NC(=O)[C@H](C)NC3=O)C(=O)O)C(=O)O)C(=O)O)C(=O)O)CC2)NC(=O)[C@H](CC(=O)O)NC(=O)[C@H](CCCCC)NC(=O)[C@H](Cc2ccc(-c3ccccc3)cc2)NC(=O)[C@H](CC(C)C)NC(=O)[C@H](C(C)C)NC(=O)CNC(=O)[C@H](CC(=O)O)NC(=O)[C@H](Cc2c[nH]cn2)NC(=O)[C@H](Cc2ccc(O)cc2)NC1=O (some centres unmarked) [I-17]
increase in killing over background (DMSO-treated control) (SUDHL-4 cells; CIML NK cells in combination with I-17, SUDHL-4 cells, 18 hours): 66% | killing of SUDHL-4 cells in NK-SUDHL-4 co-cultures (SUDHL-4 cells; FIG. 6): can effectively kill cancer cells | reduction in the frequencies of CD38+ CD138+ cells in patient bone marrow [1]: effectively reduced frequency of plasma cells; also recorded: can reduce the number of plasma cells | NK cell numbers / NK cell fratricide [2]: NK cell numbers did not change; also recorded: No or low level of undesired NK cell fratricide | NK cell fratricide / toxicity ([3]; 2 hr incubation, up to the highest doses (FIG. 5)): no apparent NK cell fratricide was detected; also recorded: low toxicity | increase in the percentage of dead NK cells ([3]; CIML NK cells, 2 hours post-incubation, daratumumab 3 ug/ml or 20.1 nM, I-17 +/-IVIG): no increase | increase in dead NK cells (I-17 IvIG vs DMSO IVIG control) ([3]; non-CIML NK cells, 2 h, I-17 25 uM with IVIG 500 ug/ml): 0.93% | increase in dead NK cells over DMSO treated control ([3]; non-CIML NK cells, 2 h, I-17 at 25 uM vs DMSO control): 1.7%

Source: patent publication US20230028880A1, “CD38-BINDING AGENTS AND USES THEREOF” (Biohaven Therapeutics Ltd., priority 2019, published 2023)
